One data set addresses T1, Recombinant human BACE1 (Homo sapiens, UniProt P56817).
T1 construct: purchased R&D Systems
Nature of the data set: Assay of BACE 1 inhibiting activity. The data set is classed as biochemical. The note with it: Recombinant human BACE1 7.4 nmol/L, substrate peptide 18 nmol/L, pH 5.0, 30° C., 3 hours; read-out: 50% inhibitory concentration against the enzymatic activity (IC50). Here is the method:
48.5 μL of substrate peptide solution (Biotin-XSEVNLDAEFRHDSGC-Eu: X═ε-amino-n-capronic acid, Eu=Europium cryptate) was added to each well of 96-hole half-area plate (a black plate: Costar), and after addition of 0.5 μl of the test compound (dissolved in […]) and 1 μl of Recombinant human BACE1 (R&D Systems), the reaction mixture was incubated at 30° C. for 3 hours. The substrate peptide was synthesized by reacting Cryptate TBPCOOH mono SMP (CIS bio international) with Biotin-XSEVNLDAEFRHDSGC (Peptide Institute, Inc.). The final concentrations of the substrate peptide and Recombinant human BACE1 were adjusted to 18 nmol/L and 7.4 nmol/L, respectively, and the reaction was performed in sodium acetate buffer (50 mmol/L sodium acetate, pH 5.0, 0.008% Triton X-100).
After the incubation for reaction, 50 μl of 8.0 μg/ml Streptavidin-XL665 (CIS bio international) dissolved in phosphate buffer (150 mmol/L K2 HPO4—KH2PO4, pH 7.0, 0.008% Triton X-100, 0.8 mol/L KF) was added to each well and left stand at 30° C. for an hour. After then, fluorescence intensity was measured (excitation wavelength: 320 nm, measuring wavelength: 620 nm and 665 nm) using Wallac 1420 multilabel counter (Perkin Elmer life sciences). Enzymatic activity was determined from counting ratio of each wavelength (10,000× Count 665/Count 620) and 50% inhibitory concentration against the enzymatic activity was calculated.

Data set [1] has as its system Neuroblastoma SH—SY5Y cells (SH/APPwt) with human wild-type β-APP excessively expressed. The experiment in a line: Measurement of β-amyloid (Aβ) production inhibitory effect in cell. The data set is classed as cell-based. The note with it: 24 hours incubation, Amyloid β 1-40 by HTRF, read-out: amount needed to inhibit Aβ production by 50% (IC50). As for the experimental part: Neuroblastoma SH—SY5Y cells (SH/APPwt) with human wild-type p-APP excessively expressed therein were prepared at 8×10^5 cells/mL, and 150 μl portions thereof were inoculated into each well of a 96-well culture plate (Falcon). The cells were cultured for 2 hours at 37° C. in a 5% gaseous carbon dioxide incubator. Then, a solution which had been preliminarily prepared by adding and suspending the test compound (DMSO (dimethyl sulfoxide) solution) so as to be 2 μl/50 μl medium was added to the cell sap. Namely, the final DMSO concentration was 1%, and the amount of the cell culture was 200 μl. After the incubation was performed for 24 hours from the addition of the test compound, 100 μl of the culture supernatant was collected from each fraction. The amount of the Aβ in each fraction was measured.
The Aβ amount was measured as follows. 10 μl of a homogeneous time resolved fluorescence (HTRF) measurement reagent (Amyloid β 1-40 peptide; IBA Molecular Holding, S. A.) and 10 μl of the culture supernatant were put into a 384-well half area microplate (black microplate, Costar) and mixed with each other, and then left standing overnight at 4° C. while the light was shielded. Then, the fluorescence intensity (excitation wavelength: 337 nm, measurement wavelength: 620 nm and 665 nm) was measured with a Wallac 1420 multilabel counter (Perkin Elmer life sciences). The Aβ amount was determined from the count rate at each measurement wavelength (10000× Count 665/Count 620), and the amount needed to inhibit Aβ production by 50% (IC50) was calculated from at least six different dosages.

A further data set concerns the target T2, CYP1A2 (Homo sapiens, UniProt P05177).
T2 construct: enzyme, pooled human hepatic microsome 0.2 mg protein/mL; from tissue; host or cells: pooled human hepatic microsome
T2 sequence (P05177 1-516): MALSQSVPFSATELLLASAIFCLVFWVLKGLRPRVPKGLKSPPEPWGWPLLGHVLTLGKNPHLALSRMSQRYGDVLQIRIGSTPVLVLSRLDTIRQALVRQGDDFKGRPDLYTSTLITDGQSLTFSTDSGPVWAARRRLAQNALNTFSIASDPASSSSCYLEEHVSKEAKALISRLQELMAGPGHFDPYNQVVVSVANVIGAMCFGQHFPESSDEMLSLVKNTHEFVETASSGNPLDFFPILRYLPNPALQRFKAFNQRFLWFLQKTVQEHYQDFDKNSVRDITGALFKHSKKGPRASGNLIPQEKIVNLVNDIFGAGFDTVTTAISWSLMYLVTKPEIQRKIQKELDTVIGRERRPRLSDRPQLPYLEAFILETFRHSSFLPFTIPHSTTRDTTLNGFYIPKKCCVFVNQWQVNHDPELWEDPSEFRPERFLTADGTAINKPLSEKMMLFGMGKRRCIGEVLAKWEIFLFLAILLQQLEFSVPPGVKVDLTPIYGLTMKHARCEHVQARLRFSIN
Nature of the data set: CYP inhibition test (7-ethoxyresorufin O-deethylation). It is filed as in vitro ADME. The note with it: pooled human hepatic microsome, test drug concentration 1, 5, 10, 20 μmol/L. Here is the method:
(§1) Using commercially available pooled human hepatic microsome, and employing, as markers, 7-ethoxyresorufin O-deethylation (CYP1A2), tolbutamide methyl-hydroxylation (CYP2C9), mephenyloin 4′-hydroxylation (CYP2C19), dextromethorphan O-demethylation (CYP2D6), and terfenadine hydroxylation (CYP3A4) as typical substrate metabolism reactions of human main five CYP enzyme forms (CYP1A2, 2C9, 2C19, 2D6, 3A4), an inhibitory degree of each metabolite production amount by a test compound was assessed. […] After the centrifugation at 3000 rpm for 15 minutes, resorufin (CYP1A2 metabolite) in the supernatant was quantified by a fluorescent multilabel counter and tolbutamide hydroxide (CYP2C9 metabolite), mephenyloin 4′ hydroxide (CYP2C19 metabolite), dextrorphan (CYP2D6 metabolite), and terfenadine alcohol (CYP3A4 metabolite) were quantified by LC/MS/MS. Addition of only DMSO being a solvent dissolving a drug to a reaction system was adopted as a control (100%), remaining activity (%) was calculated at each concentration of a test drug added as the solution and IC50 was calculated by reverse presumption by a logistic model using a concentration and an inhibition rate.

The next data set concerns the target T3, CYP2C9 (Homo sapiens, UniProt P11712).
T3 construct: enzyme, pooled human hepatic microsome 0.2 mg protein/mL; from tissue; host or cells: pooled human hepatic microsome
Nature of the data set: CYP inhibition test (tolbutamide methyl-hydroxylation). The note with it: pooled human hepatic microsome, test drug concentration 1, 5, 10, 20 μmol/L. It is filed as in vitro ADME. As for the experimental part: as §1

The next data set addresses T4, CYP2C19 (Homo sapiens, UniProt P33261).
T4 construct: enzyme, pooled human hepatic microsome 0.2 mg protein/mL; from tissue; host or cells: pooled human hepatic microsome
Nature of the data set: CYP inhibition test (mephenytoin 4'-hydroxylation). The note with it: pooled human hepatic microsome, test drug concentration 1, 5, 10, 20 μmol/L. It is filed as in vitro ADME. Here is the method:
as §1

The next data set deals with T5, CYP2D6 (Homo sapiens, UniProt P10635).
T5 construct: enzyme, pooled human hepatic microsome 0.2 mg protein/mL; from tissue; host or cells: pooled human hepatic microsome
The experiment in a line: CYP inhibition test (dextromethorphan O-demethylation). The data set is classed as in vitro ADME. The note with it: pooled human hepatic microsome, test drug concentration 1, 5, 10, 20 μmol/L. As for the experimental part: as §1

Data set [2] has as its target T6, CYP3A4 (Homo sapiens, UniProt P08684). The experiment in a line: CYP inhibition test (terfenadine hydroxylation). The data set is classed as in vitro ADME. On the set-up: enzyme, pooled human hepatic microsome 0.2 mg protein/mL; from tissue; host or cells: pooled human hepatic microsome. The note with it: pooled human hepatic microsome, test drug concentration 1, 5, 10, 20 μmol/L. As for the experimental part:
as §1

The target in data set [3] is T6, CYP3A4. The experiment in a line: CYP3A4 fluorescent MBI test. The note with it: CYP3A4 expressed in Escherichia coli, substrate 7-BFC, pre-reaction 0 or 30 minutes. On the set-up: host or cells: Escherichia coli. It is filed as in vitro ADME. As for the experimental part: The CYP3A4 fluorescent MBI test is a test of investigating enhancement of CYP3A4 inhibition of a compound by a metabolism reaction, and the test was performed using, as CYP3A4 enzyme expressed in Escherichia coli and employing, as an index, a reaction in which 7-benzyloxytrifluoromethylchmarin (7-BFC) is debenzylated by the CYP3A4 enzyme to produce a metabolite, 7-hydroxytrifluoromethylchmarin (HFC) emitting fluorescent light.
The reaction conditions were as follows: substrate, 5.6 μmol/L 7-BFC; pre-reaction time, 0 or 30 minutes; reaction time, 15 minutes; reaction temperature, 25° C. […]
An enzyme in a K-Pi buffer (pH 7.4) and a test drug solution as a pre-reaction solution were added to a 96-well plate at the composition of the pre-reaction, a part of it was transferred to another 96-well plate so that it was 1/10 diluted by a substrate in a K-Pi buffer, NADPH as a co-factor was added to initiate a reaction as an index (without preincubation) and, after a predetermined time of a reaction, acetonitrile/0.5 mol/L Tris(trishydroxyaminomethane)=4/1 was added to stop the reaction. […] For the plate on which each index reaction had been performed, a fluorescent value of 7-HFC which is a metabolite was measured with a fluorescent plate reader. […]

SMILES strings stand for the structures.

Experimental findings from patent US20120245155A1, “FUSED HETEROCYCLIC COMPOUND HAVING AMINO GROUP” (Shionogi & Co., Ltd., priority 2009, published 2012) are described below.

T1 sequence (P56817 46-501): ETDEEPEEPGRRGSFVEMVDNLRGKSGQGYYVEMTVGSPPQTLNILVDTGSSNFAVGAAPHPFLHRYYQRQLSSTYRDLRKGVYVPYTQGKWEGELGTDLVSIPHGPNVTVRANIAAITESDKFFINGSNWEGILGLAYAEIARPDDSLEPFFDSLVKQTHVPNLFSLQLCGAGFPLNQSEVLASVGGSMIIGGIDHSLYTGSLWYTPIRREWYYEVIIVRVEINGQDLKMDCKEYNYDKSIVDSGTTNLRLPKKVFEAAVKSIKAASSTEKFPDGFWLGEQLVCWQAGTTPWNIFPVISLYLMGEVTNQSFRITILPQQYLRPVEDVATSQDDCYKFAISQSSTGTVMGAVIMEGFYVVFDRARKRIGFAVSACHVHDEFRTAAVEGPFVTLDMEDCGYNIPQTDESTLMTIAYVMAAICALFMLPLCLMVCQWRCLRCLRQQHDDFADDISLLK
T6 sequence (P08684 whole entry): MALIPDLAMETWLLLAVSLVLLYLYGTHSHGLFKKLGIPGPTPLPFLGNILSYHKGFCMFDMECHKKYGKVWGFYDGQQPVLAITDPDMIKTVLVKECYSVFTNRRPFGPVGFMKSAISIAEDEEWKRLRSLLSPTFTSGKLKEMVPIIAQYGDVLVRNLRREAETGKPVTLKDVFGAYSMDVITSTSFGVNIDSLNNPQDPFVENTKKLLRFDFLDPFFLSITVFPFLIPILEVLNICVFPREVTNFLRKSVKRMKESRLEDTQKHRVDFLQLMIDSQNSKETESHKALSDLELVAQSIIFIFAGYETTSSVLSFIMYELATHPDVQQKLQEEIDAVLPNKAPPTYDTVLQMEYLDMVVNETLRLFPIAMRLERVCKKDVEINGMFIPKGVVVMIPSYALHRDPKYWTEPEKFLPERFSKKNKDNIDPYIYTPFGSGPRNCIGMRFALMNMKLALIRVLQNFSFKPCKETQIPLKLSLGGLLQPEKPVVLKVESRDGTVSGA
T4 sequence (P33261 whole entry): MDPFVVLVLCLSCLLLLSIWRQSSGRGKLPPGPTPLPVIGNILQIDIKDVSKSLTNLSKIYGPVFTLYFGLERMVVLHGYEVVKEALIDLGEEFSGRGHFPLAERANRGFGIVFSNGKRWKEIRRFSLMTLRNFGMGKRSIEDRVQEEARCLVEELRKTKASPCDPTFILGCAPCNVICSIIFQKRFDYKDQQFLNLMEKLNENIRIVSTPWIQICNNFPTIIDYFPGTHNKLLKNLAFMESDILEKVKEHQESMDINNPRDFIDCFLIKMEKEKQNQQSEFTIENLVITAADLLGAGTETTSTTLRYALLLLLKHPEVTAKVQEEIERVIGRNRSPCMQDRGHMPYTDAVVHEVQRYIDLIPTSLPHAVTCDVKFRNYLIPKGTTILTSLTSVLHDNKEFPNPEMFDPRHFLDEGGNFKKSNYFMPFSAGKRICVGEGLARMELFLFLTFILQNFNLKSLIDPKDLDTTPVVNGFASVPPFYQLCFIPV
T5 sequence (P10635 whole entry): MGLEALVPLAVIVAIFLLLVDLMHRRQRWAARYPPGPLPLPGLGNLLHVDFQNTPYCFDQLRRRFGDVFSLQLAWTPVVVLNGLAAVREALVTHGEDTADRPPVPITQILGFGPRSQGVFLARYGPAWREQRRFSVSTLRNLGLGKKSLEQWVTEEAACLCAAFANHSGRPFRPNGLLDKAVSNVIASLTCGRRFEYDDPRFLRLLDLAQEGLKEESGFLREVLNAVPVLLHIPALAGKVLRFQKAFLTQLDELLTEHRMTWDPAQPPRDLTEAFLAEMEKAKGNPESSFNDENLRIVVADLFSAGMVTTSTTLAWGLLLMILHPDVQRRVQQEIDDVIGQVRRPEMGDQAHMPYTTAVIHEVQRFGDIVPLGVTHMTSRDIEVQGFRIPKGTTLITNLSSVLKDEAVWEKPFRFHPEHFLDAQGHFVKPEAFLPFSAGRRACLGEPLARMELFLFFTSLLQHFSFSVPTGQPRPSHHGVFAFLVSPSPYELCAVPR
T3 sequence (P11712 whole entry): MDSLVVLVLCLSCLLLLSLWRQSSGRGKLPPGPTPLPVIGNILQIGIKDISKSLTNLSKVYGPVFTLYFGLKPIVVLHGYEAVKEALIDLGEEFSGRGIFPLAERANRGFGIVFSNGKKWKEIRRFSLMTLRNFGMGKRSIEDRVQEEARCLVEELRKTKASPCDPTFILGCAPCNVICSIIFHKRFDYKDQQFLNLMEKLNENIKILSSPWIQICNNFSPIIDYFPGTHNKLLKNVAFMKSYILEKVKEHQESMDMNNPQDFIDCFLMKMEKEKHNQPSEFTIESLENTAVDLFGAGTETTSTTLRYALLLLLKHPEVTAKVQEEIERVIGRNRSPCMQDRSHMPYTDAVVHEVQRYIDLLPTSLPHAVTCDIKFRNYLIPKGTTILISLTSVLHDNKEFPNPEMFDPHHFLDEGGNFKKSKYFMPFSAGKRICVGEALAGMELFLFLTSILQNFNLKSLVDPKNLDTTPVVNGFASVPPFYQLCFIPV

Turning to `C=C1SC(N)=NC2(c3cc(NC(=O)c4ccc(C#N)cn4)ccc3F)COCC12` (racemic) [Compound I-3], the figures for the IC50 (at Recombinant human BACE1; in data set [1]) were 29 nM and at most 1000 nM, respectively.
With `N#Cc1ccc(C(=O)Nc2ccc(F)c(C34COCC3COC(N)=N4)c2)nc1` (racemic) [Compound I-33], the IC50 at Recombinant human BACE1 is at most 1000 nM; in data set [1], at most 1000 nM; against CYP1A2, over 20000 nM; against CYP2C9 it was over 20000 nM; at CYP2C19, over 20000 nM; against CYP2D6, over 20000 nM. The IC50 on CYP3A4 [2] was over 20000 nM.
Regarding `Cc1cnc(C(=O)Nc2ccc(F)c(C34COCC3COC(N)=N4)c2)cn1` (racemic) [Compound I-34], the IC50 in data set [1] was at most 1000 nM.
In the case of `COc1cnc(C(=O)Nc2ccc(F)c(C34COCC3COC(N)=N4)c2)cn1` (racemic) [Compound I-35], the IC50 (at Recombinant human BACE1; in data set [1]) was at most 1000 nM throughout.
As for `NC1=NC2(c3cc(NC(=O)c4ccc(Cl)cn4)ccc3F)COCC2CO1` (racemic) [Compound I-36], the IC50 (on Recombinant human BACE1; in data set [1]) was at most 1000 nM throughout.
Consider `CC#CCOc1cnc(C(=O)Nc2ccc(F)c(C34COCC3COC(N)=N4)c2)cn1` (racemic) [Compound I-37], for which, in data set [1], the IC50 amounted to 1 nM.
Take `N#Cc1ccc(C(=O)Nc2ccc(F)c(C34CCCC3COC(N)=N4)c2)nc1` (racemic) [Compound I-38]: the IC50 (at Recombinant human BACE1; in data set [1]) was at most 1000 nM each time.
For the molecule `NC1=NC2(c3cc(-c4cccnc4F)ccc3F)CCCC2CO1` (racemic) [Compound I-40], in data set [1], the IC50 is at most 1000 nM.
In the case of `COc1cncc(-c2ccc(F)c(C34CCCC3COC(N)=N4)c2)c1` (racemic) [Compound I-41], the IC50 in data set [1] is at most 1000 nM.
With `CNC(=O)c1ccc(-c2ccc(F)c(C34COCC3COC(N)=N4)c2)cn1` (racemic) [Compound I-43], the IC50 in data set [1] is at most 1000 nM.
In the case of `COc1cncc(-c2ccc(F)c(C34COCC3COC(N)=N4)c2)c1` (racemic) [Compound I-44], the IC50 in data set [1] was at most 1000 nM. Further, the “CYP3A4 MBI: difference of IC50 value with and without preincubation” value at CYP3A4 [3] is listed as “(−) (When the difference was 3 μM or less, the result was defined as (−))”.
As for `NC1=NC2(c3cc(-c4cncc(Cl)c4)ccc3F)COCC2CO1` (racemic) [Compound I-45], in data set [1], the IC50 is at most 1000 nM.
On to `NC1=NC2(c3cc(NC(=O)c4ccc(OC(F)F)cn4)ccc3F)CCCC2CO1` (stereo not drawn) [Compound I-46], for which the IC50 in data set [1] is at most 1000 nM.
